Measured values as given in patent US8372621B2, “Methods and materials for the production of shikimic acid” (priority 2003, dated 2013).

Assays:
[1] = tested on: O=C[C@H](O)[C@H](O)COP(=O)(O)O; experiment: DAHP formation kinetics, wild-type S. typhimurium KDPGal aldolase (Table 10); assay type: biochemical, Salmonella typhimurium; conditions: other: purified as GST fusion protein; pH 7.5
Description: (§1) Enzyme activity is measured by following the formation of 3-dehydroshikimic acid (DHS) over time when DHQ synthase (3-dehydroquinate synthase, E.C. 4.2.3.4) and DHQ dehydratase (E.C. 4.2.1.10) are utilized as coupling enzymes. DHQ synthase is prepared as described in Frost, J. W. et al., Biochemistry, 1984, 23, 4470-75; DHQ dehydratase is purified from E. coli AB2848/pKD201 The reaction (1 mL) contains 50 mM morpholinepropanesulfonic acid (MOPS) buffer (pH 7.5), 1 mM D-erythrose 4-phosphate, 1 mM pyruvate, 50 μM CoCl2, 10 μM NAD, 1 U of DHQ synthase, 1 U of DHQ dehydratase and cellular lysate. The reaction is initiated by addition of diluted cellular lysate to the assay solution, and the absorbance at 234 nm monitored continuously for 5 min. One unit of evolved enzyme activity is defined by the formation of one μmol of DHS per minute.

[2] = tested on: E. coli native DAHP synthase AroH; conditions: Akowski & Bauerle 1997, cited from earlier work
[3] = target: S. typhimurium KDPGal aldolase (DgoA) variant ST04-5 (D20E, V28M, S42T, I89T, P150L, D178G; parent SEQ ID NO:6), GST fusion protein (Salmonella enterica, UniProt A0A0H3NU26, D178G/D20E/I89T/P150L/S42T/V28M); experiment: DAHP formation kinetics, evolved variant ST04-5 (Table 10); assay type: biochemical; conditions: purified as GST fusion protein
S. typhimurium KDPGal aldolase (DgoA) variant ST04-5 (D20E, V28M, S42T, I89T, P150L, D178G; parent SEQ ID NO:6), GST fusion protein, sequence (A0A0H3NU26 whole entry D178G/D20E/I89T/P150L/S42T/V28M, the tested form may be a part): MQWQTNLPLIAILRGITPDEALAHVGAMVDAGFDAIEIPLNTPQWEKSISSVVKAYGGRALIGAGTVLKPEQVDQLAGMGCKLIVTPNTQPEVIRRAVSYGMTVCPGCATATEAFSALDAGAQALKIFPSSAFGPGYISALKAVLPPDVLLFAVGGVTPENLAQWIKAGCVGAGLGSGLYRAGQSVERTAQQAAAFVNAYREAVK
Description: as §1, with “The reaction is initiated by addition of diluted cellular lysate to the assay solution, and the absorbance at 234 nm monitored continuously for 5 min.” left out

[4] = tested on: chimeric KDPGal aldolase (DgoA) variant NR8.165-4 (family shuffling of EC03-1, KP03-3 and ST04-5), GST fusion protein; experiment: DAHP formation kinetics, family-shuffled variant NR8.165-4 (Table 10); assay type: biochemical, chimera of E. coli, K. pneumoniae and S. typhimurium
Description: as §1
(§2) The the dgoA mutants, EC03-1, KP03-3 and ST04-5, were subjected to DNA family shuffling using the single-stranded DNA shuffling method developed by Zhao and coworkers: Zha, W; Zhu, T; Zhao, H., Methods Mol. Biol. 2003, 231, 91-97. […] The dgoA gene hybrids from the five largest colonies that appeared after 2.5 days were sequenced and their encoding KDPGal aldolase activities toward DAHP formation were determined as shown in Table 9.

[5] = tested on: chimeric KDPGal aldolase (DgoA) variant NR8.165-6 (family shuffling of EC03-1, KP03-3 and ST04-5), GST fusion protein; experiment: DAHP formation kinetics, family-shuffled variant NR8.165-6 (Table 10); assay type: biochemical, chimera of E. coli, K. pneumoniae and S. typhimurium
Description: as §1, §2

[6] = tested on: E. coli native DAHP synthase AroG; conditions: Sheflyan et al. 1998, cited from earlier work
[7] = tested on: E. coli native DAHP synthase AroF; conditions: Ramilo & Evans 1997, cited from earlier work
[8] = tested on: chimeric KDPGal aldolase (DgoA) variant NR8.165-2 (family shuffling of EC03-1, KP03-3 and ST04-5), GST fusion protein; experiment: DAHP formation kinetics, family-shuffled variant NR8.165-2 (Table 10); assay type: biochemical, chimera of E. coli, K. pneumoniae and S. typhimurium
Description: as §1, §2

[9] = tested on: O=C[C@H](O)[C@H](O)COP(=O)(O)O; experiment: DAHP formation kinetics, evolved variant ST04-5 (Table 10); assay type: biochemical, Salmonella typhimurium; conditions: other: purified as GST fusion protein; pH 7.5
Description: as §1, with “The reaction is initiated by addition of diluted cellular lysate to the assay solution, and the absorbance at 234 nm monitored continuously for 5 min.” left out

[10] = tested on: O=C[C@H](O)[C@H](O)COP(=O)(O)O; experiment: DAHP formation kinetics, wild-type K. pneumoniae KDPGal aldolase (Table 10); assay type: biochemical, Klebsiella pneumoniae; conditions: other: purified as GST fusion protein; pH 7.5
Description: as §1

[11] = substrate: O=C[C@H](O)[C@H](O)COP(=O)(O)O; experiment: DAHP formation kinetics, evolved variant EC03-1 (Table 10); assay type: biochemical, Escherichia coli; conditions: other: purified as GST fusion protein; pH 7.5
Description: as §1, with “1 U of DHQ dehydratase and cellular lysate. The reaction is initiated by addition of diluted cellular lysate to the assay solution, and the absorbance at 234 nm monitored continuously for 5 min.” left out

[12] = substrate: O=C[C@H](O)[C@H](O)COP(=O)(O)O; experiment: DAHP formation kinetics, wild-type E. coli KDPGal aldolase (Table 10); assay type: biochemical, Escherichia coli; conditions: other: purified as GST fusion protein; pH 7.5
Description: as §1, with “1 U of DHQ dehydratase and cellular lysate. The reaction is initiated by addition of diluted cellular lysate to the assay solution, and the absorbance at 234 nm monitored continuously for 5 min.” left out

[13] = read-out: Km for D-erythrose 4-phosphate
[14] = compared with the wild-type E. coli KDPGal aldolase
[15] = purified as GST fusion protein, read-out: Km (E4P)
[16] = relative to parent enzymes EC03-1 and ST04-5

Salmonella typhimurium KDPGal aldolase (DgoA), wild type, SEQ ID NO:6, GST fusion protein (Salmonella enterica subsp. enterica serovar Typhimurium str. SL1344)
Km [1]: 685 µM

O=C[C@H](O)[C@H](O)COP(=O)(O)O [E4P, D-erythrose 4-phosphate]
kcat [2]: 20.6 s⁻¹
Km [2, 13]: 35 µM
kcat [3]: 3.24 s⁻¹
kcat/Km [3]: 27200 M⁻¹ s⁻¹
increase in kcat [4, 14]: 5 fold
increase in kcat/Km [4, 14]: 25 fold
reduction in Km for D-erythrose 4-phosphate [4, 14]: 5 fold
kcat ([4]; purified as GST fusion protein): 4.76 s⁻¹
kcat/Km ([4]; purified as GST fusion protein): 41400 M⁻¹ s⁻¹
Km [4, 15]: 115 µM
kcat ([5]; purified as GST fusion protein): 0.504 s⁻¹
kcat/Km ([5]; purified as GST fusion protein): 6300 M⁻¹ s⁻¹
Km [5, 15]: 80 µM
kcat/Km relative to parent enzymes [5, 16]: decrease in kcat/Km values relative to their parent enzymes
kcat [6]: 10.3 s⁻¹
Km [6, 13]: 141 µM
kcat [7]: 29.5 s⁻¹
Km [7, 13]: 81.4 µM
kcat ([8]; purified as GST fusion protein): 2.51 s⁻¹
kcat/Km ([8]; purified as GST fusion protein): 16000 M⁻¹ s⁻¹
Km [8, 15]: 157 µM
kcat/Km relative to parent enzymes [8, 16]: decrease in kcat/Km values relative to their parent enzymes

S. typhimurium KDPGal aldolase (DgoA) variant ST04-5 (D20E, V28M, S42T, I89T, P150L, D178G; parent SEQ ID NO:6), GST fusion protein (Salmonella enterica subsp. enterica serovar Typhimurium str. SL1344; D178G/D20E/I89T/P150L/S42T/V28M)
Km [9]: 119 µM

Klebsiella pneumoniae KDPGal aldolase (DgoA), wild type, SEQ ID NO:4, GST fusion protein (Klebsiella pneumoniae subsp. pneumoniae MGH 78578)
Km [10]: 1507 µM

B1: E. coli KDPGal aldolase (DgoA) variant EC03-1 (F33I, D58N, Q72H, A75V, V85A, V154F; parent SEQ ID NO:2), GST fusion protein (Escherichia coli K-12; … (protein)
chain: MQWQTKLPLIAILRGITPDEALAHVGAVIDAGIDAVEIPLNSPQWEQSIPAIVDAYGNKALIGAGTVLKPEHVDVLARMGCQLIATPNIHSEVIRRAVGYGMTVCPGCATATEAFTALEAGAQALKIFPSSAFGPQYIKALKAVLPSDIAVFAFGGVTPENLAQWIDAGCAGAGLGSDLYRAGQSVERTAQQAAAFVKAYREAVQ
Km [11]: 124 µM
kcat [11]: 2.49 s⁻¹
kcat/Km [11]: 20100 M⁻¹ s⁻¹

B2: Escherichia coli KDPGal aldolase (DgoA), wild type, SEQ ID NO:2, GST fusion protein (Escherichia coli K-12) (protein)
chain: MQWQTKLPLIAILRGITPDEALAHVGAVIDAGFDAVEIPLNSPQWEQSIPAIVDAYGDKALIGAGTVLKPEQVDALARMGCQLIVTPNIHSEVIRRAVGYGMTVCPGCATATEAFTALEAGAQALKIFPSSAFGPQYIKALKAVLPSDIAVFAVGGVTPENLAQWIDAGCAGAGLGSDLYRAGQSVERTAQQAAAFVKAYREAVQ
Km [12]: 571 µM
kcat [12]: 0.94 s⁻¹
kcat/Km [12]: 1650 M⁻¹ s⁻¹
